In US6884415B2, “Antioxidation food product, antioxidation preparation and antioxidation method” (Otsuka Pharmaceutical Co., Ltd., priority 1993, dated 2005):

Biological target: T1, MPO (myeloperoxidase) (Homo sapiens, UniProt P05164)
T1 sequence (P05164 49-745): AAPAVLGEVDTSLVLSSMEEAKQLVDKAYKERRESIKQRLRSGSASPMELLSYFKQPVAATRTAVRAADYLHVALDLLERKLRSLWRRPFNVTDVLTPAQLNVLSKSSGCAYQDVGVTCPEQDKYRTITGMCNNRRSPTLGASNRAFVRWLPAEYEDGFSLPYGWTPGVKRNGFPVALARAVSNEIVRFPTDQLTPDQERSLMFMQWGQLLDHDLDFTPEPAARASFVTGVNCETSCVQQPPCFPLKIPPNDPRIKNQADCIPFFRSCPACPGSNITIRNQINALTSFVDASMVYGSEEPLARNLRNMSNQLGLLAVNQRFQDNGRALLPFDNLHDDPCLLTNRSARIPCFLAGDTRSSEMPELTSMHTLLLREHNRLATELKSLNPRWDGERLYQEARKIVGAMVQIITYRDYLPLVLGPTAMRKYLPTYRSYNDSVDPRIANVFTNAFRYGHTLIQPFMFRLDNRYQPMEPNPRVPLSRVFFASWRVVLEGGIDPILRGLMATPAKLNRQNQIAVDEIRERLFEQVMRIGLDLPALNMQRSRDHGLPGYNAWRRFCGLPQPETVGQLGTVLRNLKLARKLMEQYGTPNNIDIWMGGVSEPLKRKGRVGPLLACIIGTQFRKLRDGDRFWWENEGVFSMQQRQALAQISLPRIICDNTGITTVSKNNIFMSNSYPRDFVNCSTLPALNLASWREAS
Assay: MPO (myeloperoxidase) activity inhibition
Assay type: biochemical
Conditions: MPO purified enzyme, pH 5.4, 25° C.
Method: To 2.9 ml of a 50 mM phosphate buffer (pH: 5.4) containing 0.1% hydrogen peroxide and 1.03 mM o-dianisidine, 50 μl of a test solution and 50 μl of a MPO purified enzyme (1.24 units/ml) were added and, after incubating in a cuvet at 25° C., measuring a change in absorbance (λ: 450 nm) was measured for 5 minutes. As a blank, 50 μl of a 50 mM phosphate buffer (pH: 5.4) was used.
As the test solution, a tea extract solution obtained by extracting a green tea with hot water and a solution obtained by measuring the concentration of Mn in the tea extract solution and adding MnCl2 in an APT broth so that the concentration of Mn in the medium may be the same as that of the tea extract solution were used. Then, […]
Therefore, it was examined whether the component contained in the tea other than Mn is connected with the MPO activity inhibition or not. That is, according to the same manner as that described above, the MPO inhibition activity was examined using a purified catechin as the component other than Mn.

Substance: catechin
- concentration at which the MPO inhibition effect is exhibited: ≥ 1.5 µg/mL
